From patent publication US9006188B2, “Co-crystals of dapagliflozin” (Mapi Pharma Ltd., priority 2013, dated 2015)
Read-outs that look alike come from different tables or passages of the source.

What was measured:
[1] = XRPD after DVS at 25° C., 0-95% relative humidity
Description: (§1) The preparation of lactose co-crystal and asparagine co-crystal were scaled up and repeated (about 400 mg of dapagliflozin free form was dissolved in 26 ml of IPA) and XRPD, PLM, TGA, DSC, NMR and DVS analyses were conducted for physicochemical properties evaluation. Before physicochemical properties evaluation, the solids precipitated out were isolated and dried off at 40° C. for 4 hours in vacuum drier. After hygroscopicity test, the sample was retested by XRPD to determine if any form transformation during the DVS test.
(§2) The sorption/desorption profiles of dapagliflozin Form I were tested at 25° C. under 0-95% relative humidity. […] This sample was tested by XRPD.

[2] = −20° C., tightly closed, 1.5 month
Description: Dapagliflozin was stored at −20° C., tightly closed. After being stored for 1.5 month, it was characterized by XRPD, MDSC and TGA to check if it is stable.

[3] = Hygroscopicity by Dynamic Vapor Sorption (DVS), sorption/desorption profile; type: physicochemical; conditions: for appearance of sample after DVS testing: after DVS at 25° C., 0-95% relative humidity
Description: as §1, §2

[4] = DVS 25° C., cycle 1, target 0.0 % P/Po
[5] = DVS 25° C., cycle 1, target 5.0 % P/Po
[6] = DVS 25° C., cycle 1, target 10.0 % P/Po
[7] = DVS 25° C., cycle 1, target 15.0 % P/Po
[8] = DVS 25° C., cycle 1, target 20.0 % P/Po
[9] = DVS 25° C., cycle 1, target 25.0 % P/Po
[10] = DVS 25° C., cycle 1, target 30.0 % P/Po
[11] = DVS 25° C., cycle 1, target 35.0 % P/Po
[12] = DVS 25° C., cycle 1, target 40.0 % P/Po
[13] = DVS 25° C., cycle 1, target 45.0 % P/Po
[14] = DVS 25° C., cycle 1, target 50.0 % P/Po
[15] = DVS 25° C., cycle 1, target 55.0 % P/Po
[16] = DVS 25° C., cycle 1, target 60.0 % P/Po
[17] = DVS 25° C., cycle 1, target 65.0 % P/Po
[18] = DVS 25° C., cycle 1, target 70.0 % P/Po
[19] = DVS 25° C., cycle 1, target 75.0 % P/Po
[20] = DVS 25° C., cycle 1, target 80.0 % P/Po
[21] = DVS 25° C., cycle 1, target 85.0 % P/Po
[22] = DVS 25° C., cycle 1, target 90.0 % P/Po
[23] = DVS 25° C., cycle 1, target 95.0 % P/Po

stability on storage (form transformation by XRPD, MDSC, TGA) [2]: stable
stability on storage (form transformation by XRPD, MDSC, TGA) ([2]; listed as Dapagliflozin): no form transformation was detected
weight gain from 0 to 95% RH ([3]; DVS 25° C., 0 to 95% RH): 23.33%
Change In Mass (%) - ref, Desorption [3, 4]: 10.18%
Change In Mass (%) - ref, Sorption [3, 4]: 0.00%
Change In Mass (%) - ref, Desorption [3, 5]: 10.26%
Change In Mass (%) - ref, Hysteresis [3, 5]: 10.18%
Change In Mass (%) - ref, Sorption [3, 5]: 0.09%
Change In Mass (%) - ref, Desorption [3, 6]: 10.34%
Change In Mass (%) - ref, Hysteresis [3, 6]: 10.20%
Change In Mass (%) - ref, Sorption [3, 6]: 0.14%
Change In Mass (%) - ref, Desorption [3, 7]: 10.42%
Change In Mass (%) - ref, Hysteresis [3, 7]: 10.19%
Change In Mass (%) - ref, Sorption [3, 7]: 0.23%
Change In Mass (%) - ref, Desorption [3, 8]: 10.50%
Change In Mass (%) - ref, Hysteresis [3, 8]: 10.20%
Change In Mass (%) - ref, Sorption [3, 8]: 0.30%
Change In Mass (%) - ref, Desorption [3, 9]: 10.58%
Change In Mass (%) - ref, Hysteresis [3, 9]: 10.16%
Change In Mass (%) - ref, Sorption [3, 9]: 0.41%
Change In Mass (%) - ref, Desorption [3, 10]: 10.66%
Change In Mass (%) - ref, Hysteresis [3, 10]: 10.10%
Change In Mass (%) - ref, Sorption [3, 10]: 0.55%
Change In Mass (%) - ref, Desorption [3, 11]: 10.74%
Change In Mass (%) - ref, Hysteresis [3, 11]: 9.91%
Change In Mass (%) - ref, Sorption [3, 11]: 0.83%
Change In Mass (%) - ref, Desorption [3, 12]: 10.83%
Change In Mass (%) - ref, Hysteresis [3, 12]: 9.65%
Change In Mass (%) - ref, Sorption [3, 12]: 1.18%
Change In Mass (%) - ref, Desorption [3, 13]: 10.97%
Change In Mass (%) - ref, Hysteresis [3, 13]: 9.22%
Change In Mass (%) - ref, Sorption [3, 13]: 1.75%
Change In Mass (%) - ref, Desorption [3, 14]: 11.15%
Change In Mass (%) - ref, Hysteresis [3, 14]: 8.85%
Change In Mass (%) - ref, Sorption [3, 14]: 2.31%
Change In Mass (%) - ref, Desorption [3, 15]: 11.35%
Change In Mass (%) - ref, Hysteresis [3, 15]: 8.46%
Change In Mass (%) - ref, Sorption [3, 15]: 2.89%
Change In Mass (%) - ref, Desorption [3, 16]: 11.59%
Change In Mass (%) - ref, Hysteresis [3, 16]: 8.05%
Change In Mass (%) - ref, Sorption [3, 16]: 3.54%
Change In Mass (%) - ref, Desorption [3, 17]: 11.95%
Change In Mass (%) - ref, Hysteresis [3, 17]: 7.67%
Change In Mass (%) - ref, Sorption [3, 17]: 4.27%
Change In Mass (%) - ref, Desorption [3, 18]: 12.47%
Change In Mass (%) - ref, Hysteresis [3, 18]: 7.53%
Change In Mass (%) - ref, Sorption [3, 18]: 4.94%
Change In Mass (%) - ref, Desorption [3, 19]: 13.23%
Change In Mass (%) - ref, Hysteresis [3, 19]: 7.02%
Change In Mass (%) - ref, Sorption [3, 19]: 6.21%
Change In Mass (%) - ref, Desorption [3, 20]: 14.44%
Change In Mass (%) - ref, Hysteresis [3, 20]: 5.71%
Change In Mass (%) - ref, Sorption [3, 20]: 8.73%
Change In Mass (%) - ref, Desorption [3, 21]: 16.99%
Change In Mass (%) - ref, Hysteresis [3, 21]: 4.90%
Change In Mass (%) - ref, Sorption [3, 21]: 12.09%
Change In Mass (%) - ref, Desorption [3, 22]: 21.36%
Change In Mass (%) - ref, Hysteresis [3, 22]: 4.66%
Change In Mass (%) - ref, Sorption [3, 22]: 16.70%
Change In Mass (%) - ref, Desorption [3, 23]: 23.33%
Change In Mass (%) - ref, Sorption [3, 23]: 23.33%
appearance of sample after DVS testing [3]: thick gel
appearance of sample after DVS testing ([3]; listed as dapagliflozin Form I): thick gel-like material
hygroscopicity classification ([3]; based on DVS weight gain from 0 to 95% RH): very hygroscopic
SMILES: CCOc1ccc(Cc2cc([C@@H]3O[C@H](CO)[C@@H](O)[C@H](O)[C@H]3O)ccc2Cl)cc1 [Form I, (2S,3R,4R,5S,6R)-2-[4-chloro-3-(4-ethoxybenzyl)phenyl]-6-(hydroxymethyl)tetrahydro-2H-pyran-3,4,5-triol, reference compound]
form transformation after DVS test (XRPD) [1]: an amorphous form (not containing the 32 deg peak) was detected
form transformation after DVS test (XRPD) ([1]; listed as dapagliflozin Form I): the amorphous was found after testing DVS
